This data set is described as follows: TNS dye-binding assay for dissociation constant (pKa). It counts as physicochemical. From the text:
Ionizable lipids have two main roles: binding to nucleic acids and allowing the release of the nucleic acid molecules in cells.

Usually pKa stands for the pH at which an ionisable group is half protonated. `CCCCC/C=C\C/C=C\CCCCCCC(O)CNCCN(C)CCN(CC(O)CCCCCC/C=C\C/C=C\CCCCC)CC(O)CCCCCC/C=C\C/C=C\CCCCC` (stereo not shown) [II-37] returned a pKa of 6.81.
